Laboratory results published in patent publication US20250313572A1, “MACROCYCLIC MCL-1 INHIBITORS AND METHODS OF USE” (AbbVie Inc., priority 2017, published 2025).
Where two headings read alike, the source gives them in different places.

Key:
[1] = test system: NCI-H929 human multiple myeloma tumor cell line; experiment: NCI-H929 cell viability assay (CellTiter-Glo, 24 hours); format: cell-based; conditions: Homo sapiens, NCI-H929, 24 h, read-out: H929 Viability IC50 (μM, 10% FBS), 10% FBS, 24 hours of compound treatment
[2] = test system: AMO-1 human multiple myeloma tumor cell line; experiment: AMO-1 cell viability assay (CellTiter-Glo, 24 hours); format: cell-based; conditions: Homo sapiens, AMO1, 24 h, read-out: AMO-1 Viability IC50 (μM, 10% FBS), 10% FBS, 24 hours of compound treatment
GST-MCL-1 = GST-MCL-1 (Homo sapiens, UniProt Q07820); experiment: TR-FRET MCL-1 binding assay (competition with probe F-Bak)
Chain of GST-MCL-1 (Q07820 whole entry): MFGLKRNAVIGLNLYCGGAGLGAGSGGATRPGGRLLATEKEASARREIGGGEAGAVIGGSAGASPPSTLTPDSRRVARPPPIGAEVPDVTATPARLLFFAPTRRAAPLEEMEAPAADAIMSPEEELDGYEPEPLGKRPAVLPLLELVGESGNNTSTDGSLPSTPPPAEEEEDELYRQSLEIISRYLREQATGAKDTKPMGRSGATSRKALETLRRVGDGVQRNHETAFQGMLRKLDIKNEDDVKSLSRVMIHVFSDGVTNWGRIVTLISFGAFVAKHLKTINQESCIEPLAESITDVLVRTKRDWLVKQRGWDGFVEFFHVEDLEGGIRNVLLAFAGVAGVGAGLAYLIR
Procedure, shortened: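 Displacement of F-Bak from GST-MCL-1 is detected by time-resolved FRET with a Tb-labelled anti-GST antibody, with excitation 340/35 nm and emission 520/525 and 495/510 nm, after 2 hours at room temperature. Compounds were titrated in 11 three-fold steps starting at 25 μM final, in buffer alone or in 10% HS.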

[3] = MCL-1 Binding Ki (nM, 10% HS), in the presence of 10% HS (human serum)
[4] = without HS, read-out: MCL-1 Binding Ki

## COCCOCCOCCOCCOCCO[C@H]1CC[C@@H](c2nccc(COc3ccc4cc3C[C@H](C(=O)O)Oc3ncnc5sc(-c6ccc(F)cc6)c(c35)-c3c(C)c(Cl)c(c(Cl)c3C)O[C@H](CN3CCN(C)CC3)CO4)n2)CC1 [Example 82, (7R,16R)-19,23-dichloro-1-(4-fluorophenyl)-20,22-dimethyl-16-[(4-methylpiperazin-1-yl)methyl]-10-[(2-{(1s,4s)-4-[(2,5,8,11,14-pentaoxahexadecan-16-yl)oxy]cyclohexyl}pyrimidin-4-yl)methoxy]-7,8,15,16-tetrahydro-18,21-etheno-13,9-(metheno)-6,14,17-trioxa-2-thia-3,5-diazacyclononadeca[1,2,3-cd]indene-7-carboxylic Acid]
[1]
  IC50: 0.00109 µM
[2]
  IC50: 0.000563 µM
GST-MCL-1; [3]
  Ki: 0.135 nM
GST-MCL-1; [4]
  Ki: 0.014 nM

## COCCOCCOCCOCCOCCOCC1(c2nccc(COc3ccc4cc3C[C@H](C(=O)O)Oc3ncnc5sc(-c6ccc(F)cc6)c(c35)-c3c(C)c(Cl)c(c(Cl)c3C)O[C@H](CN3CCN(C)CC3)CO4)n2)CCCCC1 [Example 88, (7R,16R)-19,23-dichloro-1-(4-fluorophenyl)-10-({2-[1-(2,5,8,11,14,17-hexaoxaoctadecan-1-yl)cyclohexyl]pyrimidin-4-yl}methoxy)-20,22-dimethyl-16-[(4-methylpiperazin-1-yl)methyl]-7,8,15,16-tetrahydro-18,21-etheno-13,9-(metheno)-6,14,17-trioxa-2-thia-3,5-diazacyclononadeca[1,2,3-cd]indene-7-carboxylic Acid]
[1]
  IC50: 0.00206 µM
[2]
  IC50: 0.00117 µM
GST-MCL-1; [3]
  Ki: 0.143 nM
GST-MCL-1; [4]
  Ki: 0.033 nM

## COCCOCCOCCOCCOc1nccc(COc2ccc3cc2C[C@H](C(=O)O)Oc2ncnc4sc(-c5ccc(F)cc5)c(c24)-c2c(C)c(Cl)c(c(Cl)c2C)O[C@H](CN2CCN(C)CC2)CO3)n1 [Example 89, (7R,16R)-19,23-dichloro-1-(4-fluorophenyl)-20,22-dimethyl-16-[(4-methylpiperazin-1-yl)methyl]-10-({2-[(2,5,8,11-tetraoxatridecan-13-yl)oxy]pyrimidin-4-yl}methoxy)-7,8,15,16-tetrahydro-18,21-etheno-13,9-(metheno)-6,14,17-trioxa-2-thia-3,5-diazacyclononadeca[1,2,3-cd]indene-7-carboxylic Acid]
[1]
  IC50: 0.00299 µM
[2]
  IC50: 0.00262 µM
GST-MCL-1; [3]
  Ki: 0.485 nM
GST-MCL-1; [4]
  Ki: 0.067 nM

## COCCOCCOCCOc1ccc(-c2nccc(COc3ccc4cc3C[C@H](C(=O)O)Oc3ncnc5sc(C6CCCCC6)c(c35)-c3c(C)c(Cl)c(c(Cl)c3C)O[C@H](CN3CCN(C)CC3)CO4)n2)cc1 [Example 90, (7R,16R)-19,23-dichloro-1-cyclohexyl-10-{[2-(4-{2-[2-(2-methoxyethoxy)ethoxy]ethoxy}phenyl)pyrimidin-4-yl]methoxy}-20,22-dimethyl-16-[(4-methylpiperazin-1-yl)methyl]-7,8,15,16-tetrahydro-18,21-etheno-13,9-(metheno)-6,14,17-trioxa-2-thia-3,5-diazacyclononadeca[1,2,3-cd]indene-7-carboxylic Acid]
[1]
  IC50: 0.000787 µM
[2]
  IC50: 0.000183 µM
GST-MCL-1; [3]
  Ki: 3.41 nM
GST-MCL-1; [4]
  Ki: 0.044 nM

## Cc1c(Cl)c2c(Cl)c(C)c1-c1c(-c3ccc(F)cc3)sc3ncnc(c13)O[C@@H](C(=O)O)Cc1cc(ccc1OCc1ccnc(N3CCC(F)(COCCOCC4COCCO4)CC3)n1)OC[C@@H](CN1CCN(C)CC1)O2 (stereo partly drawn) [Example 91, (7R,16R)-19,23-dichloro-10-({2-[4-({2-[(1,4-dioxan-2-yl)methoxy]ethoxy}methyl)-4-fluoropiperidin-1-yl]pyrimidin-4-yl}methoxy)-1-(4-fluorophenyl)-20,22-dimethyl-16-[(4-methylpiperazin-1-yl)methyl]-7,8,15,16-tetrahydro-18,21-etheno-13,9-(metheno)-6,14,17-trioxa-2-thia-3,5-diazacyclononadeca[1,2,3-cd]indene-7-carboxylic Acid]
[1]
  IC50: 0.00192 µM
[2]
  IC50: 0.00072 µM
GST-MCL-1; [3]
  Ki: 2.1 nM
GST-MCL-1; [4]
  Ki: 0.231 nM

## COCCOCCOCCN(CCOCCOCCOC)c1nccc(COc2ccc3cc2C[C@H](C(=O)O)Oc2ncnc4sc(-c5ccc(F)cc5)c(c24)-c2c(C)c(Cl)c(c(Cl)c2C)O[C@H](CN2CCN(C)CC2)CO3)n1 [Example 93, (7R,16R)-10-{[2-(bis{2-[2-(2-methoxyethoxy)ethoxy]ethyl}amino)pyrimidin-4-yl]methoxy}-19,23-dichloro-1-(4-fluorophenyl)-20,22-dimethyl-16-[(4-methylpiperazin-1-yl)methyl]-7,8,15,16-tetrahydro-18,21-etheno-13,9-(metheno)-6,14,17-trioxa-2-thia-3,5-diazacyclononadeca[1,2,3-cd]indene-7-carboxylic Acid]
[1]
  IC50: 0.00424 µM
[2]
  IC50: 0.00553 µM
GST-MCL-1; [3]
  Ki: 4.34 nM
GST-MCL-1; [4]
  Ki: 0.748 nM

## COCCOCCOCCOCC1CN(c2nccc(COc3ccc4cc3C[C@H](C(=O)O)Oc3ncnc5sc(-c6ccc(F)cc6)c(c35)-c3c(C)c(Cl)c(c(Cl)c3C)O[C@H](CN3CCN(C)CC3)CO4)n2)C1 [Example 94, (7R,16R)-19,23-dichloro-1-(4-fluorophenyl)-20,22-dimethyl-16-[(4-methylpiperazin-1-yl)methyl]-10-({2-[3-(2,5,8,11-tetraoxadodecan-1-yl)azetidin-1-yl]pyrimidin-4-yl}methoxy)-7,8,15,16-tetrahydro-18,21-etheno-9,13-(metheno)-6,14,17-trioxa-2-thia-3,5-diazacyclononadeca[1,2,3-cd]indene-7-carboxylic Acid]
[1]
  IC50: 0.00184 µM
[2]
  IC50: 0.00203 µM
GST-MCL-1; [3]
  Ki: 1.08 nM
GST-MCL-1; [4]
  Ki: 0.181 nM

## COCCOCCOC[C@]1(F)CC[C@@H](c2nccc(COc3ccc4cc3C[C@H](C(=O)O)Oc3ncnc5sc(-c6ccc(F)cc6)c(c35)-c3c(C)c(Cl)c(c(Cl)c3C)O[C@H](CN3CCN(C)CC3)CO4)n2)CC1 [Example 96, (7R,16R)-19,23-dichloro-10-({2-[(1s,4s)-4-fluoro-4-{[2-(2-methoxyethoxy)ethoxy]methyl}cyclohexyl]pyrimidin-4-yl}methoxy)-1-(4-fluorophenyl)-20,22-dimethyl-16-[(4-methylpiperazin-1-yl)methyl]-7,8,15,16-tetrahydro-18,21-etheno-13,9-(metheno)-6,14,17-trioxa-2-thia-3,5-diazacyclononadeca[1,2,3-cd]indene-7-carboxylic Acid]
[1]
  IC50: 0.000259 µM
[2]
  IC50: 0.000287 µM
GST-MCL-1; [3]
  Ki: 0.037 nM
GST-MCL-1; [4]
  Ki: 0.003 nM

## COCCOCCOCCOc1cccc(COc2ccc3cc2C[C@H](C(=O)O)Oc2ncnc4sc(-c5ccc(F)cc5)c(c24)-c2c(C)c(Cl)c(c(Cl)c2C)O[C@H](CN2CCN(C)CC2)CO3)n1 [Example 99, (7R,16R)-19,23-dichloro-1-(4-fluorophenyl)-10-[(6-{2-[2-(2-methoxyethoxy)ethoxy]ethoxy}pyridin-2-yl)methoxy]-20,22-dimethyl-16-[(4-methylpiperazin-1-yl)methyl]-7,8,15,16-tetrahydro-18,21-etheno-9,13-(metheno)-6,14,17-trioxa-2-thia-3,5-diazacyclononadeca[1,2,3-cd]indene-7-carboxylic Acid]
[1]
  IC50: 0.00269 µM
[2]
  IC50: 0.000655 µM
GST-MCL-1; [3]
  Ki: 6.17 nM
GST-MCL-1; [4]
  Ki: 0.543 nM
